In US8242118B2, “Arylsulfonamide derivatives for use as CCR3 antagonists in the treatment of inflammatory and immunological disorders” (Axikin Pharmaceuticals Inc., priority 2001, dated 2012):
Where a name gives a salt, the structure may show the parent alone.

Experiments:
Human CCR3 = target: T1, Human CCR3 (Homo sapiens, UniProt P51677); assay: Receptor binding assay (RBA), [125I]-eotaxin; settings: human CCR3-transformed K562 cells, 0.1 nM [125I]-eotaxin; compounds of about 40 to 90% purity; read-out: Activity grade RBA (IC50 class)
T1 construct: The cloned CCR3 cDNA was constructed with pcDNA3 vector and transfected into a IC562 cell line; expressed in transfected cells
T1 sequence (P51677 1-355): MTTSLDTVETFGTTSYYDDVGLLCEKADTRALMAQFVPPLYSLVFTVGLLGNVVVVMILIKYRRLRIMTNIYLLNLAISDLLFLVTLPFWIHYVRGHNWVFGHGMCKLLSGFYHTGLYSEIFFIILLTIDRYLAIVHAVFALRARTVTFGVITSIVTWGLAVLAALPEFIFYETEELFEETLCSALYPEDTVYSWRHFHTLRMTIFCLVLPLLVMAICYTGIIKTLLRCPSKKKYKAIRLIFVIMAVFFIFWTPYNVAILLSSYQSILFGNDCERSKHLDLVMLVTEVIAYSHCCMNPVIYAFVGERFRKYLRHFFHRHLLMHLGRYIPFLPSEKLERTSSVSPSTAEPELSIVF
Procedure: [Determination of IC50 Values of Compounds in Receptor Binding Assay]
• Human CCR3-transformed K562 cells were used. The cloned CCR3 cDNA was constructed with pcDNA3 vector and transfected into a IC562 cell line. The human CCR3-transformed K562 cells were maintained in RPMI-1640 (Cat.#22400-089, Life Technologies) supplemented with 10% FCS (Cat.#A-1115-L, Hyclone), 55 μM 2-mercaptoethanol (Cat.#21985-023, Life Technologies), 1 mM sodium pyruvate (Cat.#11360-070, Life Technologies), 100 units/ml of penicillin G and 100 μg/ml of streptomycin (Cat.#15140-122, Life Technologies), and 0.4 mg/ml of Geneticin (Cat.#10131-035, Life Technologies)(hereinafter called “culture medium”). Before the receptor binding assay, cells were pretreated with 5 mM sodium butyrate (Cat.#193-01522, Wako)-containing the culture medium (2×10^5 cells/ml) for 20-24 hours to increase the expression of CCR3. (2) Receptor Binding Assay (RBA) • Butyrate-pretreated cells, suspended in binding buffer (25 mM HEPES pH 7.6, 1 mM CaCl2, 5 mM MgCl2, 0.5% BSA, 0.1% NaN3) at a cell density of 2×10^6 cells/ml, were added into 60 μl/well in the 96-well round bottom polypropylene plate (Cat.#3365, Costar). Compounds, diluted with the binding buffer (4-times higher concentration of the final concentration), were added into 30 μl/well in the polypropylene plate. [^125I]-labeled human eotaxin (Cat.#IM290, Amersham Pharmacia Biotech), diluted with the binding buffer at the concentration of 0.4 nM (final concentration; 0.1 nM), was added into 30 μl/well in the polypropylene plate. Total 120 μl/well of binding reaction mixture (60 μl/well of cell suspension, 30 μl/well of compound solution, and 30 μl/well of [^125I]-labeled eotaxin) were incubated in the polypropylene plate for 1 hour at room temperature after the incubation, 100 μl/well of the reaction mixture was transferred to a filtration plate (Cat.#MAFB-N0B, Millipore), and washed with the washing buffer (25 mM HEPES pH 7.6, 1 mM CaCl2, 5 mM MgCl2, 0.5% BSA, 0.1% NaN3, 0.5 M NaCl) twice. The 96-well filtration plate was pretreated with 100 μl/well of 0.5% polyethylenimine (Cat.#P-3143, Sigma) for 2-4 hours at room temperature and washed with the washing buffer twice before use. The non-specific binding was determined by parallel incubation in the presence of 500 nM of non-labeled eotaxin (Cat.#23209, Genzyme Techne). The radioactivities remained on the filter were measured by liquid scintillation counter (TopCount™, Packard) after an addition of 45 μl/well of scintillant (Microscint20, Cat.#6013621, Packard). The inhibition percent at each concentration of compound was calculated, and IC50 values were determined from the inhibition curve. [Determination of IC50 Values of Compounds in Calcium Mobilization Assay] (IC50 Ca2+) (1) Cell • Human CCR3-transformed K562 cells were used. The human CCR3-transformed K562 cells were maintained in RPMI-1640 supplemented with 10% FCS, 55 μM 2-mercaptoethanol (Cat.#21985-023, Life Technologies), 1 mM sodium pyruvate, 100 units/ml of penicillin G and 100 μg/ml of streptomycin and 0.4 mg/ml of Geneticin. Before the calcium mobilization assay, cells were pretreated with 5 mM sodium butyrate-containing the culture medium (2×10^5 cells/ml) for 20-24 hours to increase the expression of CCR3. (2) Calcium Mobilization Assay • Butyrate-pretreated cells were loaded with Fluo-3AM (Cat.#F-1242, Molecular Probes) in loading buffer (Hanks' solution Cat.#05906 Nissui, 20 mM HEPES pH 7.6, 0.1% BSA, 1 mM probenecid Cat.#P-8761 Sigma, 1 μM Fluo-3AM, 0.01% pluronic F-127 Cat.#P-6866 Molecular Probes) at a cell density of 1×10^7 cells/ml. Then, cells were washed with calcium assay buffer (Hanks' solution Cat.#05906 Nissui, 20 mM HEPES pH 7.6, 0.1% BSA, 1 mM Probenecid Cat.#P-8761 Sigma). The cell suspension (3.3×10^6 cells/ml) was added into 60 μl/well in the 96-well clear bottom black plate (Cat.#3904, Costar). […]

Compound	IC50 (Human CCR3) [µM]	melting point [°C]
O=[N+]([O-])c1ccc(Oc2cccc(F)c2)c(S(=O)(=O)N2CCNCC2)c1 [Example 1-25]	< 1	
Cc1cc(Oc2ccc([N+](=O)[O-])cc2S(=O)(=O)N2CCNCC2)cc(C(C)C)c1.Cl [Example 1-8]	< 1	182 to 185
Cc1cc(C)cc(Oc2ccc(N)cc2S(=O)(=O)N2CCN(C(=O)OC(C)(C)C)CC2)c1 [Example 5-1, tert-butyl 4-{[5-amino-2-(3,5-dimethyl-phenoxy)phenyl]sulfonyl}-1-piperazinecarboxylate]	> 10	
O=[N+]([O-])c1ccc(Oc2ccc(F)cc2)c(S(=O)(=O)N2CCNCC2)c1 [Example 1-20]	> 10	
Cc1ccc(C(C)C)c(Oc2ccc([N+](=O)[O-])cc2S(=O)(=O)N2CCNCC2)c1.Cl [Example 1-66]	1 to 10	193
Cc1cc(C)cc(Oc2cc(C)c([N+](=O)[O-])cc2S(=O)(=O)N2CCNCC2)c1.Cl [Example 1-44]	1 to 10	159
Cc1cc(C)cc(Oc2ccc(S(C)(=O)=O)cc2S(=O)(=O)N2CCNCC2)c1.Cl [Example 1-35]	1 to 10	267 to 268
Cc1cc(C)cc(Oc2cc3cc[nH]c3cc2S(=O)(=O)N2CCNCC2)c1 [Example 11-1, 5-(3,5-dimethylphenoxy)-6-(1-piperazinylsulfonyl)-1H-indole trifluoroacetate]	> 10	
Cc1cc(C)cc(Oc2ccc(NC(=O)Cc3ccccc3)cc2S(=O)(=O)N2CCNCC2)c1 [Example 7-1, N-[4-(3,5-dimethylphenoxy)-3-(1-piperazinylsulfonyl)phenyl]-2-phenylacetamide]	> 10	228 to 230
Cc1cc(C)cc(Oc2ccc(C(=O)N3CCNCC3)cc2S(=O)(=O)N2CCNCC2)c1.Cl.Cl [Example 1-42]	> 10	288 to 290
O=[N+]([O-])c1ccc(Oc2ccccc2)c(S(=O)(=O)N2CCNCC2)c1 [Example 1-18]	1 to 10	
Cc1cc(C)cc(Oc2ccc([N+](=O)[O-])cc2S(=O)(=O)N2CCCNCC2)c1 [Example 1-90]	< 1	
Cc1cc(C)cc(Oc2ccc(Cl)cc2S(=O)(=O)N2CCNCC2)c1 [Example 5-2, 1-{[5-chloro-2-(3,5-dimethylphenoxy)phenyl]sulfonyl}piperazine hydrochloride]	< 1	
Cc1cc(C)cc(Oc2ccc([N+](=O)[O-])cc2S(=O)(=O)N2CCNCC2)c1 [Example 1-2, 1-{[2-(3,5-dimethylphenoxy)-5-nitrophenyl]sulfonyl}piperazine hydrochloride]	< 1	
CC(C)(C)c1ccc(Oc2ccc([N+](=O)[O-])cc2S(=O)(=O)N2CCNCC2)cc1 [Example 1-21]	> 10	

Now from value to compound:

IC50 (Human CCR3) [µM]	melting point [°C]	Compound
< 1		Cc1cc(C)cc(Oc2ccc(C#N)cc2S(=O)(=O)N2CCNCC2)c1 [Example 9-1, 4-(3,5-dimethylphenoxy)-3-(1-piperazinylsulfonyl)benzonitrile hydrochloride]
1 to 10		N#Cc1ccccc1Oc1ccc([N+](=O)[O-])cc1S(=O)(=O)N1CCNCC1 [Example 1-29]
< 1	104	Cl.O=[N+]([O-])c1ccc(Oc2c(F)c(F)cc(F)c2F)c(S(=O)(=O)N2CCNCC2)c1 [Example 1-74]
< 1	142	Cc1cccc(Oc2ccc([N+](=O)[O-])cc2S(=O)(=O)N2CCNCC2)c1C.Cl [Example 1-62]
< 1	263	Cl.O=[N+]([O-])c1ccc(Oc2cc(Cl)cc(Cl)c2F)c(S(=O)(=O)N2CCNCC2)c1 [Example 1-77]
< 1	273 to 274	Cl.O=[N+]([O-])c1ccc(Oc2cc(F)cc(F)c2)c(S(=O)(=O)N2CCNCC2)c1 [Example 1-4]
< 1	255 to 257	Cl.O=S(=O)(c1cc(Cl)ccc1Oc1cc(Cl)cc(Cl)c1)N1CCNCC1 [Example 1-56]
< 1	140 to 150	CCCCc1ccccc1Oc1ccc([N+](=O)[O-])cc1S(=O)(=O)N1CCNCC1.Cl [Example 1-40]
< 1		Cc1cc(C)cc(Oc2ccc(Br)cc2S(=O)(=O)N2CCNCC2)c1 [Example 8-1, 1-{[5-bromo-2-(3,5-dimethylphenoxy)phenyl]sulfonyl}piperazine hydrochloride]
< 1		COc1ccc(Oc2cc(C)cc(C)c2)c(S(=O)(=O)N2CCNCC2)c1 [Example 6-2, hydrochloride]
1 to 10		CN(C)C(=O)c1ccc(Oc2cc(Cl)cc(Cl)c2)c(S(=O)(=O)N2CCNCC2)c1 [Example 10-1, 4-(3,5-dichlorophenoxy)-N,N-dimethyl-3-(1-piperazinylsulfonyl)benzamide hydrochloride]
> 10		Cc1cc(Oc2ccc([N+](=O)[O-])cc2S(=O)(=O)N2CCNCC2)c(C(C)C)cc1Cl [Example 1-81]
1 to 10		Cc1cc(C)cc(Oc2ccncc2S(=O)(=O)N2CCNCC2)c1 [Example 25-1, 1-{[4-(3,5-dimethylphenoxy)-3-pyridinyl]sulfonyl}piperazine hydrochloride]
< 1		Cc1cc(C)cc(Oc2ccc([N+](=O)[O-])cc2S(=O)(=O)N2CCN(CCOCCO)CC2)c1 [Example 1-89]
> 10		Cc1cc(C)cc(Oc2ccc(O)cc2S(=O)(=O)N2CCNCC2)c1 [Example 6-1, 4-(3,5-dimethylphenoxy)-3-(1-piperazinylsulfonyl)phenol hydrochloride]
< 1		Cc1cc(C)cc(Sc2ccc([N+](=O)[O-])cc2S(=O)(=O)N2CCNCC2)c1 [Example 2-1, 1-({2-[(3,5-dimethylphenyl)-sulfanyl]-5-nitrophenyl}sulfonyl)piperazine hydrochloride]
< 1		CC1CN(S(=O)(=O)c2cc([N+](=O)[O-])ccc2Oc2cc(Cl)cc(Cl)c2)CC(C)N1 (stereo not drawn) [Example 1-93]
> 10		O=[N+]([O-])c1ccc(Oc2ccc(Cl)cc2)c(S(=O)(=O)N2CCNCC2)c1 [Example 1-22]
< 1		Cc1cc(C)cc(Oc2ccc([N+](=O)[O-])cc2S(=O)(=O)N2CC(C)NC(C)C2)c1 (stereo not drawn) [Example 1-92]
< 1		N#Cc1ccc(Nc2cc(Cl)cc(Cl)c2)c(S(=O)(=O)N2CCNCC2)c1 [Example 20-1, 4-[(3,5-dichlorophenyl)amino]-3-(1-piperazinylsulfonyl)benzonitrile hydrochloride]
> 10		COc1ccc(Oc2ccc([N+](=O)[O-])cc2S(=O)(=O)N2CCNCC2)cc1 [Example 1-19]
